Reference: patent US11926846B2, “Hydroxyurea to enhance sperm cells” (Meharry Medical College, priority 2017, dated 2024)
Values joined by “and” are separate entries in the source; they are usually repeats but may differ in a detail not shown here. Equal entries are not always repeated.

Columns and labels:
human sperm [1] = test: Sperm motility after 24 hour culture in HTF-buffer containing HU (Working Example 1); type: cell-based; conditions: 18 μg HU/mL, 37° C.
Protocol: Human sperm was processed with HU to show enhanced motility over human sperm not processed with HU. Normal human semen was collected in 15 mL conical centrifuge tubes. Highly motile (i.e., Grade a) sperm were isolated and collected from the semen. The isolated highly motile sperm were washed in an HTF medium (HTF-HEPES; pH 7.4) containing 0.5% Bovine Serum Albumin (“BSA”) by centrifugation and suspended in bicarbonate (25 mM)-buffered HTF containing 0.5% (5 mg/ml) BSA (36; pH 7.4). Subsequently, each sperm suspension was incubated at 37° C. in an atmosphere of 5.0% CO2 in humidified air until aliquoted into the different treatment groups: a control group and a hydroxyurea processed group.
(§1) The control group was cultured in HTF-buffer containing 0 μg HU/mL at 37° C. in an atmosphere of 5.0% CO2 in humidified air for 24 hours. After the 24 hour culture, the control sperm were evaluated for pattern and degree of motility.
The hydroxyurea processed group was cultured in HTF-buffer containing 18 μg HU/mL at 37° C. in an atmosphere of 5.0% CO2 in humidified air for 24 hours. After the 24 hour culture, the hydroxyurea processed sperm were evaluated for pattern and degree of motility. […] The percentage of motile spermatozoa was calculated by multiplying the ratio of motile to 100 spermatozoa counted by 100.
The progressive motility of the control group sperm was higher (P<0.001; based on paired t-test comparison) than the progressive motility of the hydroxyurea processed group sperm. […] On the other hand, most of the sperm cells in the control buffer remained in a progressive motility state (motility pattern observed among sperm cells that have not acquired the ability to fertilize mature eggs). These findings are clinically significant, as progressive sperm motility is a determinant of ability of spermatozoa to penetrate cervical mucus on towards migration to the fertilization site (fallopian tubes), while that for hyperactive sperm motility (capacitation) is the motion pattern characteristic of spermatozoa that have attained the ability to fertilize mature eggs.

human sperm [2] = test: Overall sperm motility after 24 hour culture with HU at HIV-suppressing concentrations (Working Example 2); type: cell-based; conditions: HTF-buffer, 37° C., control 70.3
Protocol: Normal human semen was collected in 15 mL conical centrifuge tubes. Highly motile (i.e., Grade a) sperm were isolated and collected from the semen. The isolated highly motile sperm were washed in HTF medium containing 0.5% BSA (HTF-HEPES; pH 7.4) by centrifugation and suspended in bicarbonate (25 mM)-buffered HTF containing 0.5% (5 mg/ml) BSA (36; pH 7.4). Subsequently, each sperm suspension was incubated at 37° C. in an atmosphere of 5.0% CO2 in humidified air until aliquoted into the different treatment groups: a control group and a hydroxyurea processed group.
as §1
The hydroxyurea processed groups were cultured in HTF-buffer in two groups containing different concentrations of HU: (1) 1.0 mM HU and (2) 2.0 mM HU. The groups were cultured at 37° C. in an atmosphere of 5.0% CO2 in humidified air for 24 hours. After the 24 hour culture, the hydroxyurea processed sperm were evaluated for pattern and degree of motility.
Thus, it had been previously believed that HU was an unsuitable agent to suppress HIV replication and/or activation in semen, or to reduce the risk of HIV transmission, via HU treatment of reproductive cells.

[3] = test system: human spermatozoa in semen samples; test: Sperm motility after cooling in freezing buffer with HU before cryopreservation (Working Example 3); type: cell-based
Protocol: (§2) Post semen analysis was conducted of discarded and de-identified semen samples from Ovation Fertility Center that met the World Health Organization (WHO) criteria for normal semen samples. Those semen samples that met the WHO criteria for normal were divided into two halves. One half was subjected to freezing with TEST-Yolk buffer (freezing buffer [FB]; Irvine Scientific, CA) containing 12% glycerol as cryoprotectant (control group). The remaining half of each sample was frozen with experimental freezing buffer composed of FB+HU (Sigma Aldridge, St. Louis; treatment group). Both control and experimental buffers were added on a 1:1 ratio to respective semen samples (v/v) in a dropwise manner. The final glycerol concentration in the semen+FB was 6%, and the final HU concentration in semen+experimental freezing buffer was 1 μM to use a concentration of HU that is effective in inhibiting HIV replication. Pre-freeze sperm motility was determined for each sample prior to initiating the cooling step of the freezing procedure. Samples in the control and treatment group were cooled for 24 hours to slow the HU-induced vigorously motile cells in the treatment group. Subsequently, post cooling motility was determined prior to liquid nitrogen vapor phase freezing for 30 minutes before being stored immersed in liquid nitrogen (LN) for at least 24 hours before being thawed for analysis. Samples were thawed at room temperature for 35 minutes prior to motility analysis.

[4] = test system: human spermatozoa in semen samples; test: Post-cool and post-thaw sperm motility after cryopreservation in freezing buffer with HU (Working Example 4); type: cell-based; conditions: FB+HU, final HU 1 μM, listed as HU
Protocol: as §2, with “half” for “half was”, “6%” for “6%,”, “arm” for “step”, “HU induced” for “HU-induced”, “LN” for “liquid nitrogen (LN)”, “Samples were thawed at room temperature for 35 minutes prior to motility analysis.” left out

rats [5] = conditions: single dose; cited from earlier work
rats [6] = test: Oral LD50 in rats; conditions: rat oral LD50 divided by 1000

With `NC(=O)NO` [hydroxyurea, Hydroxyurea] the “overall percentage motility (progressively + hyperactively motile spermatozoa)” value (human sperm [1]; 5.0% CO2, 24 hours, control 75.4) was 79.0%, the hyperactive motility (human sperm [1]; 24 hours, control 23.0) was 41.3% and the progressive sperm motility (human sperm [1]; 24 hours, control 51.7±10.2) was 37.7%. The overall motility (human sperm [2]; 1.0 mM HU) was 66.6, the overall motility (human sperm [2]; 2.0 mM HU) was 68.3 and the “level of overall spermatozoa with motility (FIGS. 2A-2H)” value ([3]; HU treated, video stills over about 9 seconds, control low level) was “moderate to high level”. The “motility maintained of the initial population of motile spermatozoa (pre-freeze)” value ([3]; freezing medium supplemented with HU, control 28-45%) was 76-84%, the “longevity among post-thaw spermatozoa versus control group” value ([3]; frozen in FB+HU, post-thaw) was “higher” and the “mean of the post-cool motility relative to post cool motility (survival of cooling process in percentage)” value ([3]; mean of seven HU treated samples, control 50.71) was 71.91%. For the same molecule, the “Post-thaw Motility (HU; %)” value ([4]; liquid nitrogen at least 24 hours, thawed 35 minutes at room temperature, first figure of cell) was 44% and 50% and 32%, the “Post-thaw Survival Relative to Post-cool Motility (HU; %)” value ([4]; post-thaw, second figure of cell) was 71% and 76% and 49% and the “oral LD50” value (rats [5]) was 5780 mg/kg. The “maximum effective dose (rough maximum safe dose for humans)” value (rats [6]) was ≤ 5.78 mg/kg.
